Source: publication PMC10583261 (CPT: Pharmacometrics & Systems Pharmacology, 2023)
≈ marks a conversion by molar mass, not a printed value. Where “and” joins values, the source holds several entries; their conditions need not be identical. Identical values can stand only once. Like-named read-outs stand apart in the source and are kept apart here.

Tests used:
[1] = ref data on file, cited from earlier work
[2] = weak-base compound; ref data on file; cited from earlier work
[3] = type: in vivo, human
[4] = final population PK model, healthy subjects

N#Cc1ccc(N2CCN(Cc3ccc(COc4cccc5c4CN([C@H]4CCC(=O)NC4=O)C5=O)cc3)CC2)c(F)c1 [mezigdomide]
Solubility ([1]; pH 1): 0.133 mg/mL (≈ 234 µM) | Solubility ([1]; pH 5): 0.001 mg/mL (≈ 1.76 µM) | decrease of solubility from pH 1 to pH 5 [1]: ~ 100 fold | dissociation constant [2]: 6 | decrease in ka with high-fat meal ([3]; fed vs fasted, model-estimated): ~ 30% | increase in Tlag with high-fat meal ([3]; fed vs fasted, model-estimated): ~ 0.85 h | increase of relative oral bioavailability F with high-fat meal ([3]; fed vs fasted, model-estimated): ~ 30% | interindividual variability (IIV) of central volume of distribution V1 ([3]; final population PK model): 63% and 63.4% | interindividual variability (IIV) of clearance ([3]; final population PK model): 40% and 39.9% and ~ 40% | interindividual variability (IIV) of intercompartmental clearance ([3]; final population PK model): 26% | interindividual variability (IIV) of peripheral volume of distribution ([3]; final population PK model): 26% | interoccasion variability (IOV) of absorption rate constant ka ([3]; final population PK model): 65% | V1pop, distribution volume of the central compartment [3, 4]: 440 L | V2pop, distribution volume of the peripheral compartment [3, 4]: 243 L | dose-exposure relationship ([3]; healthy subjects, 0.4–3.2 mg): linear | absorption rate constant ([3]; population PK parameter, healthy subjects (abstract)): 1.18 h⁻¹ | decrease in relative oral bioavailability F with PPI co-administration ([3]; rabeprazole vs no PPI, model-estimated): ~ 64%
